Results taken from article PMC12118597 (Science Advances, 2025).
Where “and” joins values, the source holds several entries; their conditions need not be identical. Equal values may be shown once. Read-outs that look alike come from different tables or passages of the source.

Experiments:
human macrodomain Targ1 = target: T1, human macrodomain Targ1 (Homo sapiens, UniProt Q9Y530); experiment: HTRF peptide displacement assay, human Targ1; format: binding
T1 construct: Targ1_HTRF; HTRF assay; pET22b(+); His6, TEV; 1-153; made in house
T1 sequence (Q9Y530 with tags, fused parts or gaps): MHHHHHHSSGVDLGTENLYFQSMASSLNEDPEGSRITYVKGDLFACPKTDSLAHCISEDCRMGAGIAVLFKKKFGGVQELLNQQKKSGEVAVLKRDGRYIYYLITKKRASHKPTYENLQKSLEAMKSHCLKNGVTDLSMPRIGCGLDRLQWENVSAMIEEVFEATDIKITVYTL

Caco-2 cells = test system: Caco-2 cells
Procedure: Caco-2 cell plates were obtained commercially and were maintained for 21 days at 37°C with 5% CO2. Cells were washed with Hank’s balanced salt solution with 5 mM Hepes for 30 min before starting the experiment. Test compound solutions are prepared by diluting DMSO stock into Hank’s balanced salt solution buffer, resulting in a final DMSO concentration of 0.1%. Before the assay, cell monolayer integrity was verified by […] electrical resistance to ensure that wells have resistance above the acceptance cutoff (1 kilohm). Transport experiments were initiated by adding test compounds to the apical (75 μl) or basal (250 μl) side. Transport plates were incubated at 37°C in a humidified incubator with 5% CO2. Samples were taken from the donor and acceptor compartments after 1 hour and analyzed by liquid chromatography–tandem mass spectrometry (LC-MS/MS) using an AB Sciex API 4000 instrument coupled to a Shimadzu LC-20 AD LC Pump system. Samples were separated using a Waters Atlantis T3 dC18 reverse phase HPLC column (20 mm by 2.1 mm) at a flow rate of 0.5 ml/min. The mobile phase consisted of 0.1% formic acid in acetonitrile (solvent A) and 0.1% formic acid in water (solvent B).
Apparent permeability (Papp) values were calculated using the following equation Papp=(dQ/dt)/A/C0 where dQ/dt is the initial rate of compound transport across the cell monolayer, A is the surface area of the filter membrane, and C0 is the initial concentration of the test compound, calculated for each direction using a four-point calibration curve by LC-MS/MS.
The net flux ratio between the two directional transports was calculated by the following equation Ratio=PappB−A/PappA−B where PappB-A and PappA-B represent the apparent permeability of compounds from the basal-to-apical and apical-to-basal sides of the cellular monolayer, respectively. Recovery was calculated on the basis of the compound concentration at the end of the experiment compared to that at the beginning of the experiment, adjusted for volumes.

Kinetic solubility = conditions: for Kinetic solubility (uM), mean: DMSO concentration 5%; for Mean solubility: phosphate-buffered saline pH 7.4, triplicate
Microsomal stability = format: in vitro ADME, mouse; conditions: for Mouse microsome T1/2: 1 μM compound, 0.5 mg/ml microsome protein; for CLint (mouse): intrinsic clearance from t1/2
Procedure: The assay was carried out in 96-well plates at 37°C. Reaction mixtures (25 μl) contained a final concentration of 1 μM compound, liver microsome protein (0.5 mg/ml), and 1 mM NADPH (reduced form of nicotinamide adenine dinucleotide phosphate) and/or 1 mM uridine diphosphate glucuronic acid (with alamethicin) in 100 mM potassium phosphate (pH 7.4) with 3 mM MgCl2. After 0, 15, 30, and 60 min, 150 μl of quench solution (100% acetonitrile with 0.1% formic acid) with an internal standard was transferred to each well. Reactions containing the same components, except NADPH, were prepared as the negative control.
The extent of metabolism was calculated as the disappearance of compounds compared to the 0-min time incubation.

[1] = target: T2, human macrodomain MacroD2 (Homo sapiens, UniProt A1Z1Q3); experiment: HTRF peptide displacement assay, human MacroD2; format: binding
T2 construct: MacroD2_HTRF; HTRF assay; pET22b(+); His6, TEV, Avi; 2-425; made in house
T2 sequence (A1Z1Q3 with tags, fused parts or gaps): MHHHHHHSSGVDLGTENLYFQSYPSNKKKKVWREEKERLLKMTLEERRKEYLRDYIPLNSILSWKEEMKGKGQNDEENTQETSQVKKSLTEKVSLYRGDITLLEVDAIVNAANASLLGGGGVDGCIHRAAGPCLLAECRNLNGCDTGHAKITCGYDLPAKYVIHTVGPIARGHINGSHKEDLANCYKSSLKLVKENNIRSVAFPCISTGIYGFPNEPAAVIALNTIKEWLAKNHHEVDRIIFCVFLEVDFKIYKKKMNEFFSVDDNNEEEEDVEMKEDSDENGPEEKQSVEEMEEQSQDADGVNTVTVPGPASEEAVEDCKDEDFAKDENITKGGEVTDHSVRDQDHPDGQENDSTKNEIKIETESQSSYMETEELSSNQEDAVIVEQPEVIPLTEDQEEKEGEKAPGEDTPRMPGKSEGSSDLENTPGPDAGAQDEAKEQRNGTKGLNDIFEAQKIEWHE

[2] = target: T3, SARS-CoV-2 NSP3 macrodomain (Mac1) (Severe acute respiratory syndrome coronavirus 2, UniProt P0DTD1); experiment: biochemical; format: binding
[3] = target: T3, SARS-CoV-2 NSP3 macrodomain (Mac1); format: binding; conditions: for Total number of conformations: ligand conformations modeled in the crystal structure; for 2*(1-BDC) (%): occupancy estimate from PanDDA
Mac1 = conditions: cited from earlier work
[4] = Caco-2 permeability assay, compound concentration 5
[5] = Mouse microsome stability assay
[6] = HTRF binding curve, SARS-CoV-2 Mac1
[7] = SARS CoV-2 macrodomain HTRF assay, dose-response
[8] = PanDDA background density correction factor
[9] = crystal soak 10 mM, P43 crystal form
[10] = ligand-bound crystal structure obtained (TRUE)
[11] = refined crystallographic occupancy
[12] = site occupied in X-ray crystal structure
[13] = Caco-2, compound concentration 5
[14] = PanDDA background density correction, 1-BDC

Nc1ncnc2c1ncn2[C@@H]1O[C@H](COP(=O)(O)OP(=O)(O)OC[C@H]2O[C@@H](O)[C@H](O)[C@@H]2O)[C@@H](O)[C@H]1O.[Na].[Na] [ADP-ribose, reference compound]
Hill slope (human macrodomain Targ1; HTRF binding curve, Targ1): 1.5

O=C(Nc1ccc(C(=O)N[C@H]2c3cccc(O)c3C[C@H]2C(=O)O)cc1)NC1CC1 [AVI-92, reference compound]
Papp, A-B (x10-6 cm/s), mean (Caco-2 cells; [4]): 0.04 x10-6 cm/s | Papp, B-A (x10-6 cm/s), mean (Caco-2 cells; [4]): 1.7 x10-6 cm/s | Ratio (B-A/A-B) (Caco-2 cells; [4]): 42.50 | Recover Rate (%) (Caco-2 cells; [4]): 91% | Caco-2 ratio B-A/A-B (Caco-2 cells; net flux ratio): 40.7 | Kinetic solubility (uM), mean (Kinetic solubility): 524 µM | Mean solubility (Kinetic solubility): 524 µM | Mouse microsome T1/2 (Microsomal stability): > 120 min | CLint (mouse) (µl/min/mg protein), mean (Microsomal stability; [5]): <11.6 µl/min/mg protein | T1/2 (min), mean (Microsomal stability; [5]): >120 min | CLint (mouse) (Microsomal stability): < 11.6 µl/min/mg protein

O=C1CCCN1Nc1ncnc2[nH]c3cc(F)ccc3c12 [AVI-219, reference compound]
Recover Rate (%) (Caco-2 cells; [4]): 98% | Kinetic solubility (uM), mean (Kinetic solubility): 127 µM | Mean solubility (Kinetic solubility): 127 µM | T1/2 (min), mean (Microsomal stability; [5]): 26.1 min | CLint (mouse) (Microsomal stability): 53.1 µl/min/mg protein

CC(C)(O)[C@H]1CCCN1c1ncnc2[nH]ccc12 [AVI-607, 2-[(2R)-1-{7H-pyrrolo[2,3-d]pyrimidin-4-yl}pyrrolidin-2-yl]propan-2-ol]
Recover Rate (%) (Caco-2 cells; [4]): 93% | showed binding to the human macrodomain MacroD2 ([1]; result in words): none | showed binding to the human macrodomain Targ1 (human macrodomain Targ1; result in words): none | Kinetic solubility (uM), mean (Kinetic solubility): 518 µM | Mean solubility (Kinetic solubility): 518 µM | T1/2 (min), mean (Microsomal stability; [5]): 19 min | CLint (mouse) (Microsomal stability): 73 µl/min/mg protein | Hill slope [2, 6]: 1.5 | Hill slope [2, 7]: 1.5 | inhibition at 200 µM ([2]; SARS CoV-2 macrodomain HTRF assay, single dose concentration 200 μM, read-out: Average % competition): 100% | inhibition at 200 µM ([2]; compound at 200 μM, mean of three to four technical replicates, read-out: % competition at 200 μM (preliminary HTRF screen)): 100% | Occupancy difference (refined_occupancy - 2*(1-BDC)) [3]: 5 | 1-BDC [3, 8]: 0.44 | PanDDA run, overall: Modeling comment ([3]; crystal soak 10 mM): High occupancy, use manual refinement | PanDDA run, overall: Hit [3, 9]: TRUE | PanDDA run, DMSO background map: 1-BDC ([3]; crystal soak 10 mM): 0.42 and 0.44 | PanDDA run, DMSO background map: Hit ([3]; crystal soak 10 mM): TRUE | Total number of conformations [3]: 1 | X-ray crystal structure [3, 10]: TRUE | 2*(1-BDC) (%) [3]: 88% | Refined ligand occupancy (%) [3, 11]: 93% | Binding site [3, 12]: Adenosine

CC(c1ccccc1)C(CO)Nc1ncnc2[nH]ccc12 (stereo not drawn) [AVI-3669]
Recover Rate (%) (Caco-2 cells; [13]): 93% | showed binding to the human macrodomain MacroD2 ([1]; result in words): none | showed binding to the human macrodomain Targ1 (human macrodomain Targ1; result in words): none | Kinetic solubility (uM), mean (Kinetic solubility): 529 µM | Mean solubility (Kinetic solubility): 529 µM | T1/2 (min), mean (Microsomal stability; [5]): 8.3 min | CLint (mouse) (Microsomal stability): 166.4 µl/min/mg protein | Hill slope [2, 6]: 1.2 | Hill slope [2, 7]: 1.2 | Occupancy difference (refined_occupancy - 2*(1-BDC)) [3]: 0 | 1-BDC [3, 8]: 0.14 | X-ray crystal structure ([3]; TRUE = crystal structure with ligand obtained): TRUE | PanDDA run, overall: Hit [3, 9]: TRUE | PanDDA run, overall: Modeled [3, 9]: TRUE | PanDDA run, DMSO background map: 1-BDC ([3]; crystal soak 10 mM): 0.14 | PanDDA run, DMSO background map: Hit ([3]; crystal soak 10 mM): TRUE | Total number of conformations [3]: 1 | 2*(1-BDC) (%) [3]: 28% | Refined ligand occupancy (%) [3, 11]: 28% | Binding site ([3]; site of ligand in X-ray crystal structure): Adenosine

C[C@H]1CCCN(c2ncnc3[nH]ccc23)[C@H]1CO [AVI-3716]
Recover Rate (%) (Caco-2 cells; [4]): 104% | showed binding to the human macrodomain MacroD2 ([1]; result in words): none | showed binding to the human macrodomain Targ1 (human macrodomain Targ1; result in words): none | Kinetic solubility (uM), mean (Kinetic solubility): 523 µM | Mean solubility (Kinetic solubility): 523 µM | Mouse microsome T1/2 (Microsomal stability): 31.2 min | CLint (mouse) (Microsomal stability): 44.4 µl/min/mg protein

Cc1c[nH]c2ncnc(NCC3(O)CCCCC3)c12 [AVI-3761, 1-(((5-methyl-7H-pyrrolo[2,3-d]pyrimidin-4-yl)amino)methyl)cyclohexan-1-ol]
Recover Rate (%) (Caco-2 cells; [13]): 86% | showed binding to the human macrodomain MacroD2 [1]: none | showed binding to the human macrodomain Targ1 (human macrodomain Targ1): none | T1/2 (min), mean (Microsomal stability; [5]): 7.49 min | CLint (mouse) (Microsomal stability): 185 µl/min/mg protein

CCNC(=O)Nc1cccc2c1[nH]c1ncnc(NN3C(=O)CCC3(C)C)c12 [AVI-4206]
potency (in words) (Mac1): double-digit nanomolar

CC1(C)CCN(c2ncnc3[nH]ccc23)C(CO)C1 (stereo not drawn) [AVI-5994]
Hill slope [2, 6]: 1.2 | Hill slope [2, 7]: 1.2 | 1-BDC [3, 14]: 0.23 | Refined ligand occupancy (%) ([3]; crystallographic refinement): 46% | X-ray crystal structure [3, 10]: TRUE | 2*(1-BDC) (%) [3]: 46% | Binding site [3, 12]: Adenosine

O[C@H]1CC[C@H]2CCN(c3ncnc4[nH]ccc34)[C@H]21 [AVI-5997]
Hill slope [2, 6]: 1.2 | Hill slope [2, 7]: 1.2 | 1-BDC [3, 14]: 0.29 | Refined ligand occupancy (%) ([3]; crystallographic refinement): 70% | X-ray crystal structure [3, 10]: TRUE | 2*(1-BDC) (%) [3]: 58% | Binding site [3, 12]: Adenosine

OCC1C=CCCN1c1ncnc2[nH]ccc12 (stereo not drawn) [AVI-5998]
Hill slope [2, 6]: 1.2 | Hill slope [2, 7]: 1.2 | 1-BDC [3, 14]: 0.19 | Refined ligand occupancy (%) ([3]; crystallographic refinement): 38% | X-ray crystal structure [3, 10]: TRUE | 2*(1-BDC) (%) [3]: 38% | Binding site [3, 12]: Adenosine

OCC1CC=CCN1c1ncnc2[nH]ccc12 (stereo not drawn) [AVI-6002]
Hill slope [2, 6]: 1.3 | Hill slope [2, 7]: 1.3 | 1-BDC [3, 14]: 0.16 | Refined ligand occupancy (%) ([3]; crystallographic refinement): 50% | X-ray crystal structure [3, 10]: TRUE | 2*(1-BDC) (%) [3]: 32% | Binding site [3, 12]: Adenosine

OC1(CNc2ncnc3[nH]ccc23)CCCCC1 [AVI-6217]
Hill slope [2, 6]: 1.1 | Hill slope [2, 7]: 1.1 | 1-BDC [3, 14]: 0.22 | Refined ligand occupancy (%) ([3]; crystallographic refinement): 60% | X-ray crystal structure [3, 10]: TRUE | 2*(1-BDC) (%) [3]: 44% | Binding site [3, 12]: Adenosine

OC1CCC(O)(CNc2ncnc3[nH]ccc23)CC1 (stereo not drawn) [AVI-6220]
Hill slope [2, 6]: 1.3 | Hill slope [2, 7]: 1.3 | 1-BDC [3, 14]: 0.07 | Refined ligand occupancy (%) ([3]; crystallographic refinement): 14% | X-ray crystal structure [3, 10]: TRUE | 2*(1-BDC) (%) [3]: 14% | Binding site [3, 12]: Adenosine
